Measured values as given in paper PMC5844530, “Fosmetpantotenate (RE-024), a phosphopantothenate replacement therapy for pantothenate kinase-associated neurodegeneration: Mechanism of action and efficacy in nonclinical models” (PLoS ONE, 2018).
“And” between values parts separate entries of the source, which are not always exact repeats. Identical values can stand only once.

Legend:
[1] = Metabolic stability in monkey whole blood; type: in vitro ADME, cynomolgus monkey; conditions: for Percentage Remaining: monkey whole blood, replicates 1 and 2, listed as Fosmetpantotenate Total
Description: Metabolic stability in blood and liver microsomes: Fosmetpantotenate or its individual diastereomers (5 μM, n = 2, 37°C) were incubated in mouse, rat, cynomolgus monkey, and human whole blood. […] Incubations of fosmetpantotenate or its individual diastereomers (1 μM, n = 2, 37°C) in pooled liver microsomes (0.25 mg protein/mL in 0.1 M phosphate buffer pH 7.4) were initiated with the addition of nicotinamide adenine dinucleotide phosphate (NADPH; 1 mM). Aliquots (100 μL) were obtained at 0, 5, 10, 20, and 40 min and added to 150 μL of 0.1% formic acid in acetonitrile-containing carbamazepine (0.5 μM) as an analytical internal standard, centrifuged, and the supernatants analyzed by LC-MS/MS.
Bioanalysis for determinations of analyte stability: Samples were analyzed using a benchtop tandem quadrupole detector (TQD) mass spectrometer (Waters Ltd, Centennial Park, Hertfordshire). […] Suitable retention and peak shape with separation of the 2 diastereomers were obtained. The chromatography column was a Phenomenex-Kinetex XB C18 (2.10 x 50 mm; 2.6 μm), with a 0.7 mL/min flow rate and a 2 μL injection volume. […] The gradient was initiated with 20% B and increased linearly, reaching 40% B at 0.6 min, followed by 50% B at 0.8 min and by 95% B at 0.9 min. Conditions were kept isocratic through 1.2 min, returned to starting conditions (20% B) at 1.25 min, and maintained at 20% B through 1.5 min before the next injection. Since fosmetpantotenate is a mixture of diastereomers which are resolved chromatographically, the fosmetpantotenate MRM area corresponds to the sum of the MRM areas of the individual diastereomers.
The percent of compound remaining was determined from the MRM area response in each sample relative to that in the T = 0 samples (normalized for internal standard). Natural log plots of the percent compound remaining over time were used to determine the t½ of compound disappearance using the relationship t½ = -0.693/λ, where λ is the slope of the natural logarithm of the percent compound remaining vs time curve.

[2] = Microdialysis (brain striatal dialysate) in C57Bl6 mice; conditions: for Fosmetpantotenate Total Concentration in Mouse Striatal Dialysate (Corrected for Dilution): individual mice, non-fasted male C57/Bl6; for Fosmetpantotenate Total Concentration in Mouse Striatal Dialysate (Corrected for Dilution), Mean: mean of 8 mice
Description: Mice were anesthetized using isoflurane (2%, 800 mL/min O2).
For oral dosing experiments, MetaQuant microdialysis probes (regenerated cellulose membrane, BrainLink, the Netherlands) were inserted into the striatum (3 mm exposed surface). Coordinates for the tips of the probes for mice were anterior-posterior (AP) = +0.8 mm from bregma, lateral (L) = -1.7 mm from midline, and ventral (V) = -4.0 mm from dura, the toothbar set at 0 mm.
Microdialysis animal dosing and sample collection: Adult non-fasted male C57Bl6 mice (20–29 g; Harlan Laboratories, Livermore, CA), and Macaca fascicularis (4–9 kg, 3–6 yr old) were used for the experiments. For oral dosing, fosmetpantotenate was formulated as a solution in 20% hydroxypropyl-beta-cyclodextrin in 50 mM citrate buffer in water pH 5.0 and administered using a dose volume of 10 mL/kg. Mice (N = 6 serially sampled) received fosmetpantotenate as a single oral dose at 700 mg/kg and monkeys received a single oral dose at either 100 mg/kg (N = 4 serially sampled) or 300 mg/kg (N = 2 serially sampled).
Microdialysis: On the morning of the microdialysis experiment, a MetaQuant probe was inserted into the guide shaft targeting the head of the caudate nucleus and perfused at a rate of 0.15 μL/min aCSF containing 0.2% (w/v) BSA, with a carrier flow of 0.8 μL/min of ultrapure water.
A single 30 min pre-dose basal dialysate sample was collected from mice over -0.5 to 0 h, and three 30 min basal samples from monkeys over -1.5 to 0 h. Fosmetpantotenate was administered at t = 0, and 30 min dialysate samples were collected for an additional 4 h for mice and 3 h for monkeys.
Sample preparation for mouse dialysate samples: Concentrations of fosmetpantotenate, PA, and PPA in mouse dialysate were determined by Nextcea, Inc, Woburn, MA, using LC-MS/MS. Standard curves and QC samples containing fosmetpantotenate (D1 and D2) and the surrogate analytes for PA and PPA (^15N/^13C3-PA and ^15N/^13C3-PPA) were prepared fresh in 0.1% formic acid in water. Frozen study mouse dialysate samples were thawed in ice/water bath. Standards, QC samples, and thawed study dialysate samples (20 μL) were mixed with 20 μL 0.1% formic acid in water containing internal standard (50 ng/mL of ^15N/^13C3-fosmetpantotenate) and analyzed by LC-MS/MS.
LC-MS/MS analysis for mouse dialysate samples: Concentrations of fosmetpantotenate, PA, and PPA in dialysate from mice were determined by using LC-MS/MS conditions described for blood PK analysis by Nextcea, except dialysate samples were analyzed using an ACIEX API 5000 and flow rate was increased to 0.6 mL/min.
Quantitation of in vivo samples: Peak areas were integrated using Analyst software (AB Sciex, Concord, Ontario, Canada). Calibration curves for all blood samples from mouse and rat PK studies and mouse dialysate samples were prepared by plotting the analyte to internal standard (^15N/^13C3-fosmetpantotenate) peak area ratio vs concentration.

[3] = single oral 700 mg/kg fosmetpantotenate, collection time 0 hr, BQL=8.08 nM
[4] = single oral 700 mg/kg fosmetpantotenate, collection time 0.5 hr, BQL=8.08 nM
[5] = single oral 700 mg/kg fosmetpantotenate, collection time 1 hr, BQL=8.08 nM
[6] = single oral 700 mg/kg fosmetpantotenate, collection time 1.5 hr, BQL=8.08 nM
[7] = single oral 700 mg/kg fosmetpantotenate, collection time 2 hr, BQL=8.08 nM
[8] = single oral 700 mg/kg fosmetpantotenate, collection time 2.5 hr, BQL=8.08 nM
[9] = single oral 700 mg/kg fosmetpantotenate, collection time 3 hr, BQL=8.08 nM
[10] = single oral 700 mg/kg fosmetpantotenate, collection time 3.5 hr, BQL=8.08 nM
[11] = single oral 700 mg/kg fosmetpantotenate, collection time 4 hr, BQL=8.08 nM
[12] = male, C57Bl6, mouse, striatal dialysate (brain microdialysate), other: direct infusion into the striatum via cannula, 125 µg per animal

SMILES: COC(=O)CCNC(=O)[C@H](O)C(C)(C)COP(=O)(N[C@@H](C)C(=O)OC)Oc1ccccc1 (mixture of isomers) [Fosmetpantotenate]
- half-life at 5 μM ([1]; monkey blood, 5 μM, 37°C, 60 min): 41 min
- Percentage Remaining ([1]; 5 min): 79% and 108%
- Percentage Remaining ([1]; 15 min): 66% and 98%
- Percentage Remaining ([1]; 30 min): 45% and 79%
- Percentage Remaining ([1]; 60 min): 22% and 35%
- Percentage Remaining ([1]; 90 min): 15% and 35%
- Percentage Remaining ([1]; 120 min): 10% and 17%
- Fosmetpantotenate Total Concentration in Mouse Striatal Dialysate (Corrected for Dilution) [2, 3]: BQL
- Fosmetpantotenate Total Concentration in Mouse Striatal Dialysate (Corrected for Dilution) [2, 4]: BQL
- Fosmetpantotenate Total Concentration in Mouse Striatal Dialysate (Corrected for Dilution) [2, 5]: BQL
- Fosmetpantotenate Total Concentration in Mouse Striatal Dialysate (Corrected for Dilution) [2, 6]: BQL
- Fosmetpantotenate Total Concentration in Mouse Striatal Dialysate (Corrected for Dilution) [2, 7]: BQL
- Fosmetpantotenate Total Concentration in Mouse Striatal Dialysate (Corrected for Dilution) [2, 8]: BQL
- Fosmetpantotenate Total Concentration in Mouse Striatal Dialysate (Corrected for Dilution) [2, 9]: BQL
- Fosmetpantotenate Total Concentration in Mouse Striatal Dialysate (Corrected for Dilution) [2, 10]: BQL
- Fosmetpantotenate Total Concentration in Mouse Striatal Dialysate (Corrected for Dilution) [2, 11]: BQL
- Fosmetpantotenate Total Concentration in Mouse Striatal Dialysate (Corrected for Dilution) ([2]; single oral dose (so in the source) 125 µg fosmetpantotenate per animal, collection time 0 hr): 0.1306 µM and 0.109 µM and 0.0833 µM and 0.3107 µM and 0.3579 µM and 0.2168 µM and 0.4624 µM
- Fosmetpantotenate Total Concentration in Mouse Striatal Dialysate (Corrected for Dilution) ([2]; single oral dose (so in the source) 125 µg fosmetpantotenate per animal, collection time 0.5 hr): 27.5961 µM and 228.5933 µM and 5852.2469 µM and 2389.398 µM and 1463.0617 µM and 6013.9111 µM and 2121.0353 µM
- Fosmetpantotenate Total Concentration in Mouse Striatal Dialysate (Corrected for Dilution) ([2]; single oral dose (so in the source) 125 µg fosmetpantotenate per animal, collection time 1 hr): 3.7441 µM and 35.9218 µM and 1147.8164 µM and 370.2112 µM and 269.3327 µM and 936.0362 µM and 475.293 µM
- Fosmetpantotenate Total Concentration in Mouse Striatal Dialysate (Corrected for Dilution) ([2]; single oral dose (so in the source) 125 µg fosmetpantotenate per animal, collection time 1.5 hr): 0.2457 µM and 3.8638 µM and 77.1139 µM and 16.3443 µM and 13.2241 µM and 54.6749 µM and 52.7026 µM
- Fosmetpantotenate Total Concentration in Mouse Striatal Dialysate (Corrected for Dilution) ([2]; single oral dose (so in the source) 125 µg fosmetpantotenate per animal, collection time 2 hr): 0.2142 µM and 1.3919 µM and 11.6398 µM and 2.8307 µM and 6.9839 µM and 18.3812 µM and 13.5798 µM
- Fosmetpantotenate Total Concentration in Mouse Striatal Dialysate (Corrected for Dilution) ([2]; single oral dose (so in the source) 125 µg fosmetpantotenate per animal, collection time 2.5 hr): 0.2094 µM and 0.4624 µM and 4.0416 µM and 0.9538 µM and 6.8061 µM and 14.469 µM and 7.8892 µM
- Fosmetpantotenate Total Concentration in Mouse Striatal Dialysate (Corrected for Dilution) ([2]; single oral dose (so in the source) 125 µg fosmetpantotenate per animal, collection time 3 hr): 0.1664 µM and 0.2839 µM and 1.9869 µM and 1.0929 µM and 4.1402 µM and 11.268 µM and 3.6164 µM
- Fosmetpantotenate Total Concentration in Mouse Striatal Dialysate (Corrected for Dilution) ([2]; single oral dose (so in the source) 125 µg fosmetpantotenate per animal, collection time 3.5 hr): 0.1305 µM and 0.2331 µM and 1.7056 µM and 0.6693 µM and 3.2575 µM and 11.9147 µM and 1.9173 µM
- Fosmetpantotenate Total Concentration in Mouse Striatal Dialysate (Corrected for Dilution) ([2]; single oral dose (so in the source) 125 µg fosmetpantotenate per animal, collection time 4 hr): 0.1387 µM and 0.2171 µM and 1.4129 µM and 0.5497 µM and 2.2649 µM and 9.8939 µM and 1.5099 µM
- concentration at 0 h [2, 12]: 0.239 µM
- concentration at 0.5 h [2, 12]: 2590 µM
- concentration at 1 h [2, 12]: 463 µM
- concentration at 1.5 h [2, 12]: 31.2 µM
- concentration at 2 h [2, 12]: 7.86 µM
- concentration at 2.5 h [2, 12]: 4.98 µM
- concentration at 3 h [2, 12]: 3.22 µM
- concentration at 3.5 h [2, 12]: 2.83 µM
- concentration at 4 h [2, 12]: 2.28 µM
- Fosmetpantotenate Total Concentration in Mouse Striatal Dialysate (Corrected for Dilution), Mean [2, 3]: BQL
- Fosmetpantotenate Total Concentration in Mouse Striatal Dialysate (Corrected for Dilution), Mean [2, 4]: BQL
- Fosmetpantotenate Total Concentration in Mouse Striatal Dialysate (Corrected for Dilution), Mean [2, 5]: BQL
- Fosmetpantotenate Total Concentration in Mouse Striatal Dialysate (Corrected for Dilution), Mean [2, 6]: BQL
- Fosmetpantotenate Total Concentration in Mouse Striatal Dialysate (Corrected for Dilution), Mean [2, 7]: BQL
- Fosmetpantotenate Total Concentration in Mouse Striatal Dialysate (Corrected for Dilution), Mean [2, 8]: BQL
- Fosmetpantotenate Total Concentration in Mouse Striatal Dialysate (Corrected for Dilution), Mean [2, 9]: BQL
- Fosmetpantotenate Total Concentration in Mouse Striatal Dialysate (Corrected for Dilution), Mean [2, 10]: BQL
- Fosmetpantotenate Total Concentration in Mouse Striatal Dialysate (Corrected for Dilution), Mean [2, 11]: BQL
- Cmax ([2]; striatal dialysate, fosmetpantotenate 700 mg/kg PO, analyte = label, not baseline-adjusted): <LLOQ
